In PubChem BioAssay (NCI):
Several values for one entry are separate records, joined by “and”; a condition that tells them apart may be missing. Identical values can stand only once.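 48-hour exposure; five concentrations; linearly interpolated endpoints. Abbreviation: GI50, concentration required for 50% inhibition of growth. TGI denotes the concentration required for complete inhibition of growth.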

Legend:
Test in all cases: DTP human tumour cell line panel, 48 h
[1] = tested on: NCI-H522 lung
[2] = tested on: SN12C renal
[3] = tested on: SK-MEL-5 melanoma
[4] = tested on: CAKI-1 renal
[5] = tested on: MOLT-4 leukemia
[6] = tested on: SR leukemia
[7] = tested on: EKVX NSCLC
[8] = tested on: HOP-62 NSCLC
[9] = tested on: SNB-19 CNS
[10] = tested on: BT-549 breast

Structure (SMILES) | GI50 [1] | TGI [1] | GI50 [2] | TGI [2] | GI50 [3] | TGI [3] | GI50 [4] [µM] | TGI [4] [µM] | GI50 [5] | TGI [5] | GI50 [6] | TGI [6] [µM] | GI50 [7] | TGI [7] | GI50 [8] | TGI [8] | GI50 [9] | TGI [9] | GI50 [10] | TGI [10]
CN1CCN(Cc2ccc(NC(=O)c3cncc(C#Cc4cncc5ncccc45)c3)cc2C(F)(F)F)CC1 | 3.11 µM | 17 µM | 2.59 µM | 11.8 µM | 2.95 µM | 13.6 µM | 4.74 | 16.4 | 1.18 µM | 16 µM | 3.23 µM | 34.6 | 3.91 µM | 16.8 µM | 2.53 µM | 12 µM | 10.5 µM | 22.3 µM | 7.9 µM | 20.4 µM
O=C1c2ccccc2C(=Cc2ccccc2)c2ccccc21 | 1.55 µM | 5.63 µM | 2.97 µM | 14.1 µM | 2.77 µM | 10.9 µM | 1.54 | 5.49 | 4.74 µM | > 100 µM | 0.871 µM | 18.3 | 2.93 µM | 37.9 µM | 2.62 µM | 10.2 µM | 3.61 µM | 16.9 µM | 3.71 µM | 15.6 µM
Cc1cccc(C(=O)/C=C/SC(=NC#N)SCc2ccccc2)c1 | 27.1 µM | > 100 µM | 20.4 µM | 41.3 µM | 14.7 µM | 32.9 µM | 13.1 | 39.3 | 6.72 µM | > 100 µM | 3.99 µM | > 100 | 28 µM | 63.2 µM | 23.2 µM | 45.4 µM | 36.1 µM | > 100 µM | 16.1 µM | 36.7 µM
CCN1C(NN)=NS(=O)(=O)c2ccccc21 | – | > 100 µM | – | > 100 µM | – | > 100 µM | – | > 100 | – | > 100 µM | – | > 100 | – | > 100 µM | – | > 100 µM | – | > 100 µM | – | > 100 µM
O=C(O)CCC(=O)c1ccc2ccc3cccc4ccc1c2c34 | – | > 100 µM | – | > 100 µM | – | > 100 µM | – | > 100 | – | > 100 µM | – | > 100 | – | > 100 µM | – | > 100 µM | – | > 100 µM | – | > 100 µM
Cc1cc(C2=NNC(=O)Cc3cc4c(cc32)OCCO4)cc(C)c1N | 1.24 µM | 6.19 µM | 6.17 µM | > 100 µM | 1.22 µM | > 100 µM | 0.901 | 7.66 | 3.97 µM | > 100 µM | 0.31 µM | > 100 | 29.7 µM | > 100 µM | 2.72 µM | > 100 µM | 4.31 µM | > 100 µM | 3.36 µM | > 100 µM
COC(=O)[C@]12CC[C@@H](C)[C@H](C)[C@@H]1C1=CC[C@@H]3[C@@]4(C)C(C=O)=C[C@@](C)(COC(=O)c5ccco5)[C@@H]4C(=O)C[C@@]3(C)[C@]1(C)CC2 | 7.63 µM | > 100 µM | 8.69 µM | > 100 µM | 0.294 µM | 1.45 µM | 3.77 | > 100 | 2.08 µM | 7.8 µM | 3.12 µM | 39.4 | 4.64 µM | > 100 µM | 18.9 µM | > 100 µM | 6.15 µM | > 100 µM | 4.06 µM | > 100 µM
COC1CCC(O)C(/C=C/[N+](=O)[O-])C1 (stereo not given) | – | 23.2 µM | – | 9.05 µM | – | 14.9 µM | – | 38.4 | – | 6.55 µM | – | 5.43 | – | 15.1 µM | – | 19.1 µM | – | 23.6 µM | – | 8.49 µM
CN(C)c1ccc(/C=C(\C#N)c2nc3ccccc3n2C)cc1 | 1.7 µM | 16 µM | 11.6 µM | > 100 µM | 1.92 µM | 13.6 µM | 5.16 | > 90.6 | 7.03 µM | > 38 µM | 0.279 µM | > 100 | 8.65 µM | > 100 µM | 13.8 µM | > 100 µM | 7.27 µM | > 100 µM | 3.4 µM | 31.2 µM
O=C([O][Hg][CH2]C1COC([CH2][Hg][O]C(=O)c2ccccc2)CO1)c1ccccc1 (stereo not given) | 1.47 µM and 1.14 µM | 3.78 µM and 4.64 µM | 12.2 µM and 1.54 µM | 24.6 µM and 3.02 µM | 15.1 µM and 2.85 µM | 28.6 µM and 10.7 µM | 3.38 | 6.76 | 2.18 µM and 1.41 µM | 6.5 µM and 6.83 µM | 2.83 µM and 1.65 µM | > 22.6 | 20.7 µM and 19.5 µM | 35.8 µM and 34.9 µM | 19.2 µM and 20.7 µM | 37.9 µM and 56.4 µM | 19.6 µM and 6.18 µM | 43.2 µM and 21.9 µM | 7.71 µM and 1.69 µM | 20.4 µM and 3.27 µM
COc1ccc2c(c1)C(=O)c1c-2c(Nc2ccc(C(C)=O)cc2)nc2ccccc12 | 30.3 µM | > 100 µM | 33.4 µM | > 100 µM | 48.3 µM | > 100 µM | > 100 | > 100 | > 100 µM | > 100 µM | 55.7 µM | > 100 | 25.2 µM | > 100 µM | 3.96 µM | 16.2 µM | 14.5 µM | 37.3 µM | 17.7 µM | 78.3 µM
C[C@@H]1CC[C@@H]2[C@@H]1[C@H](OC(=O)/C=C/c1ccccc1)[C@]1(C3CCCCC3)C[C@@H](NC(=O)CO)[C@@]2(C)O1 | 17.1 µM | 33.6 µM | 11.4 µM | 24.2 µM | 15.3 µM | 29 µM | 6.01 | 19.7 | 18.5 µM | 39.3 µM | 19.8 µM | 41.2 | 13.5 µM | 27.5 µM | 17.4 µM | 33.5 µM | 17.6 µM | 32.3 µM | 13.2 µM | 26.7 µM
CC(=O)OCC(=O)O[C@@H]1C[C@]2(C(C)C)O[C@@]1(C)[C@@H]1CC[C@@H](C)[C@H]1[C@@H]2OC(=O)/C=C/c1ccccc1 | 17.9 µM | 47.8 µM | 1.88 µM | 24.3 µM | 15.5 µM | 31.5 µM | 0.0244 | 0.125 | 20.3 µM | > 100 µM | 12.2 µM | > 95.9 | 13.8 µM | 59.1 µM | 17.3 µM | 45.2 µM | 30.2 µM | > 100 µM | 0.0987 µM | 7 µM
